# pIC50: −log10 of the molar value. Where two headings read alike, the source gives them in different places.
# What was measured:
# HepG2 cells = experiment: multiparametric cell-based HCA hepatotoxicity assay; design: species or system human; conditions: for pIC50: HepG2, 24-hour incubation
# [1] = design: method as in earlier work; conditions: Operetta assay protocol; read-out: median concentration (IC50); cited from earlier work
SMILES,cell nucleuses (Hoechst 33342) in representative images (HepG2 cells; 3 μM),"mitochondrial mass (MS), intensity of Mitotracker Deep Red FM in representative images (HepG2 cells; 3 μM)",increase of plasma membrane permeability (PMP) (HepG2 cells; 30 μM) [fold],pIC50 (HepG2 cells; read-out: IC50 of cell number (CN)),pIC50 (HepG2 cells; read-out: IC50 of mitochondrial mass (MS)),pIC50 (HepG2 cells; read-out: IC50 of mitochondrial membrane potential (MMP)),pIC50 (HepG2 cells; read-out: IC50 of nuclear area (NA)),pIC50 (HepG2 cells; read-out: IC50 of plasma membrane permeability (PMP)),pIC50 [1],increase of plasma membrane permeability (PMP) (HepG2 cells; 100 μM) [fold],increase of nuclear area (NA) (HepG2 cells; 3 mM) [%],"pIC50 (HepG2 cells; listed as AAP, read-out: IC50 of cell number (CN))","pIC50 (HepG2 cells; listed as AAP, read-out: IC50 of mitochondrial mass (MS))","pIC50 (HepG2 cells; listed as AAP, read-out: IC50 of plasma membrane permeability (PMP))","pIC50 (HepG2 cells; Homo sapiens, HepG2, 24 h, read-out: IC50 of cell number (CN))","pIC50 (HepG2 cells; Homo sapiens, HepG2, 24 h, read-out: IC50 of mitochondrial mass (MS))","pIC50 (HepG2 cells; Homo sapiens, HepG2, 24 h, read-out: IC50 of plasma membrane permeability (PMP))"
"N#CC(C#N)=NNc1ccc(OC(F)(F)F)cc1 [FCCP, P-fluoromethoxyphenylhydrazone]",shrunk,increase,17.5,5.29,5.15,6.11,6.19,4.59,5.28,,,,,,,,
CC(=O)Nc1ccc(O)cc1 [acetaminophen],,,,,,,,,2.89,61.4,25.7,2.73,2.01,5.11,2.74,2.01,5.00
